Here are results for 14 molecules from ChEMBL document CHEMBL5241067, “An insight in anti-malarial potential of indole scaffold: A review” (Eur J Med Chem, 2021).

One may read the IC50 as the point on the concentration scale where inhibition reaches its midpoint.

Series [1] relates to Plasmodium falciparum. Kind of series: Antiplasmodial activity against Plasmodium falciparum DD2 assessed as growth inhibition. The series is classed as functional, organism-based.
The subject of series [2] is Plasmodium falciparum. Kind of series: Antiplasmodial activity against Plasmodium falciparum NF54 assessed as growth inhibition. The series is classed as functional, organism-based.
Series [3] concerns Plasmodium falciparum. Kind of series: Antiplasmodial activity against multidrug resistant Plasmodium falciparum K1 assessed as growth inhibition. The series is classed as functional, organism-based.
Another series concerns Plasmodium berghei. Kind of series: In vivo antimalarial activity against Plasmodium berghei infected in mouse assessed as supression of parasitemia at 20 to 25 mg/kg, po measured for 4 days. The series is classed as functional. The note with it: dose 20-25 mg/kg, time 4 day.
The nature of series [4]: Cytotoxicity against HEK293 cells. The series is classed as toxicity, cell-based. The note with it: human.
For series [5], the system named is Plasmodium falciparum. Briefly: Antimalarial activity against […] Plasmodium falciparum D6 assessed as growth inhibition. The series is classed as functional, organism-based.
For series [6], the system named is Plasmodium falciparum. Kind of series: Antimalarial activity against chloroquine-resistant Plasmodium falciparum W2 assessed as growth inhibition. The series is classed as functional, organism-based.
The test system of series [7] is Plasmodium falciparum. Briefly: Antiplasmodial activity against Plasmodium falciparum. The series is classed as functional, organism-based.
For the next series, the system named is KB. Briefly: Cytotoxicity against human KB cells. The series is classed as functional. The note with it: read-out: ED50 (the source's name).
Series [8] deals with Plasmodium falciparum. Briefly: Antiplasmodial activity against chloroquine, pyrimethamine and mefloquine-resistant Plasmodium falciparum assessed as growth inhibition. The series is classed as functional, organism-based.
Series [9] relates to Plasmodium falciparum. Briefly: Antiplasmodial activity against chloroquine-resistant Plasmodium falciparum DD2 assessed as growth inhibition. The series is classed as functional, organism-based.
In series [10] the test system is Plasmodium falciparum. Briefly: Antiplasmodial activity against multidrug-resistant Plasmodium falciparum assessed as growth inhibition. The series is classed as functional.

≈ marks a conversion by molar mass, not a printed value.

Consider `O=C1c2cc(F)ccc2-n2c1nc1ccccc1c2=O`, for which the results for the IC50 in the series on Plasmodium falciparum [1] and in the series with Plasmodium falciparum [2] were 100 nM and 57 nM, respectively.
Regarding `Cn1c2c3cc(Br)ccc3nc-2cc2cc(Br)ccc21`, the IC50 with Plasmodium falciparum [3] is 50 nM. In addition, in the series on Plasmodium berghei, the Activity was determined as 89%.
As to `CC1(C)[C@H](Cc2[nH]c3ccccc3c2CC[N+](C)(C)O)O[C@]23OC[C@H](O)[C@H]2OC(=O)[C@]13O`, in series [4], the 50% inhibitory concentration (IC50) turned out to be 80 nM.
Consider `N#Cc1c(-c2ccc(F)c(F)c2)cc(-c2ccc(Br)cc2)nc1-c1c[nH]c2ccccc12`, for which the figures for the half-inhibitory concentration (IC50) in the series on Plasmodium falciparum [5] and with Plasmodium falciparum [6] were 6600 nM and 4770 nM, respectively.
`O=C1c2cc(Br)ccc2-n2c1nc1ccc(Cl)cc1c2=O`: the values for the IC50 in the series on Plasmodium falciparum [1] and in the series on Plasmodium falciparum [2] were 123 nM and 36 nM, respectively.
`Cc1cc(-c2cc(-c3ccccc3)nc(-c3c[nH]c4ccccc34)c2C#N)cc(C)c1C`: the IC50 was determined as 1600 nM with Plasmodium falciparum [5] and 2700 nM in the series with Plasmodium falciparum [6].
The like results for `N#Cc1c(-c2ccc(F)cc2)cc(-c2ccccc2)nc1-c1c[nH]c2ccccc12` were, in that order, 1470 nM and 2990 nM.
As to `O=C1NCCc2c[nH]c3ccc4c(c23)[C@@H]1[C@H](c1ccc2c(c1)OCO2)O4`, in the series with Plasmodium falciparum [7], the 50% inhibitory concentration (IC50) was 3400 nM. Besides, the EC50 in the series with KB was 23900 nM.
For the molecule `O=C1c2cc(Br)ccc2-n2c1nc1cc(Cl)ccc1c2=O`, the values for the IC50 in the series with Plasmodium falciparum [1] and in the series with Plasmodium falciparum [2] were 238 nM and 36 nM, respectively.
For `N#Cc1c(-c2ccc(F)c(F)c2)cc(-c2ccc(F)cc2)nc1-c1c[nH]c2ccccc12`, the IC50 came to 6780 nM in the series on Plasmodium falciparum [5] and 3820 nM with Plasmodium falciparum [6].
In the case of `N#Cc1c(-c2ccc(F)c(F)c2)cc(-c2ccccc2)nc1-c1c[nH]c2ccccc12`, the half-maximal inhibitory concentration (IC50) with Plasmodium falciparum [5] amounted to 1560 nM; in the series on Plasmodium falciparum [6], 1160 nM.
Consider `O=C1c2cc([N+](=O)[O-])ccc2-n2c1nc1cc(Cl)ccc1c2=O`, for which the results for the 50% inhibitory concentration (IC50) in the series on Plasmodium falciparum [1] and in the series on Plasmodium falciparum [2] were 31 nM and 33 nM, respectively.
In the case of `Cc1cc(-c2cc(-c3ccc(F)cc3)nc(-c3c[nH]c4ccccc34)c2C#N)cc(C)c1C`, the 50% inhibitory concentration (IC50) is 5400 nM with Plasmodium falciparum [5] and 2960 nM in the series on Plasmodium falciparum [6].
On to `O=C1c2ccccc2-n2c1nc1ccccc1c2=O` [TRYPTANTHRIN], for which the figures for the 50% inhibitory concentration (IC50) in the series on Plasmodium falciparum [2], in the series on Plasmodium falciparum [8] and in the series with Plasmodium falciparum [9] were 288 nM, 0.069 µg/mL (≈ 0.278 µM) and 114 nM, respectively. In addition, the Activity in the series on Plasmodium falciparum [10] came out at 100 ng/mL.
